As a reminder, the melting point is the temperature, or range, at which the solid turns liquid. For the molecule `Cc1cc2c(cc1S(=O)(=O)c1cc(Cl)ccc1Cl)OC(C(=O)O)O2` (centres undefined), the melting point fell in the range of 155 to 157 °C.
`NS(=O)(=O)c1ccc(NN=C2C(=O)Nc3cccc(Oc4ccccc4)c32)cc1`: the melting point was > 250 °C.
In the case of `N#Cc1cc(C=C2NC(=S)NC2=O)cc(O)c1O` it was 210 to 213 °C.
`CNS(=O)(=O)c1ccccc1S(=O)(=O)NC(=O)Nc1nc(C)cc(C)n1` yielded a melting point of 180 to 185 °C.
`CC(C)[Si](Oc1ccc2c(c1)CCC2=O)(C(C)C)C(C)C` showed a melting point of 63 to 63.5 °C.
`COc1cccc2c1OC(C(=O)O)CO2` (centres undefined) gave a melting point of 131 to 132 °C.
Under `CCOC(=O)CC(=O)c1cc(F)c(OP(=O)(Oc2ccccc2)Oc2ccccc2)nc1Nc1ccc(F)cc1F` stands 85 to 86 °C; under `O=C1C=CC(=O)C(C(=O)CCn2sc(Cl)cc2=O)=C1`, 181 to 183 °C; under `CNC(=O)N1c2ccccc2CC1C` (centres undefined), 158 to 160 °C.
As to `COc1ccc(C(O)(CN)Cc2ccccc2N)cc1OC` (centres undefined), the melting point fell in the range of 131 to 133 °C.
The molecule `NC(=NC(=O)c1nc(Cl)c(N)nc1N)NCCCCc1ccc(OCC(=O)Nc2ccccc2)cc1` displayed a melting point of 168 to 170 °C.
Under `CC(=O)c1ccc(NC(=O)C(N)c2ccc3c(c2)C(C)(C)CCC3(C)C)cc1` (centres undefined) stands 138 to 139 °C.
Under `CCCc1cc(-c2noc3cc(O)ccc23)c(CCC)cc1O` stands 162 to 163 °C.
Under `Cc1[nH]cnc1CN1CCc2c(c3cccc4c3n2CCCC4)C1=O` stands 215 to 216 °C; under `CCOC(=O)COc1ccc2c(c1)C(=O)CCC2`, 84 to 86 °C.
For `Cc1c(O)ccc2c1OCC(c1ccc(Cl)cc1)C2` (centres undefined), the melting point is 98 to 100 °C.
Under `CN1CCN(CC2=NC(NC(=O)OCc3ccccc3)C(=O)N(C(C)(C(N)=O)c3ccccc3)c3ccccc32)CC1` (centres undefined) stands 65 to 70 °C; under `CCCCS(=O)(=O)N1CCC(c2ccc(O)cc2O)CC1`, 182 to 183 °C; under `Cc1cc(C)c2cnc(=O)n(CCN(C)C)c2n1`, 137 to 139 °C.
Under `COc1cc(OC)cc(-c2cc(=O)c3ccc(OCC(O)CNC(C)C)cc3o2)c1` (centres undefined) stands 155 to 156 °C.
In turn, `O=C1OC(CCCN2CCN(c3ncccn3)CC2)CN1c1ccccc1` (centres undefined) registered a melting point of 92 to 98 °C.
In the case of `Cc1ncnn1C[Si](C)(C)c1ccc(-c2ccccc2)cc1` it was 95 to 98 °C; in that of `Nc1c(C(=O)CCC(=O)O)cccc1C(=O)c1ccccc1`, 161 to 162 °C; in that of `CCOc1cc(-c2ccc(S(C)(=O)=O)cc2)c(-c2ccc(F)cc2)c(C(F)(F)F)n1`, 168 to 170 °C.
Take `COc1cc2sc(C(=O)Cl)c(Cl)c2cc1OC`: the melting point was 191 to 199 °C.
Under `Cc1cc(=O)n(C)c2c(C)cc(C(O)(C(F)(F)F)C(F)(F)F)cc12` stands 241 to 243 °C.
In the case of `CCOC(=O)c1csc(-c2ncccc2O)n1` it was 131 to 134 °C.
In the case of `COC(=O)N1CCC[C@@H](OC)[C@@H]1CC(=O)Cn1cnc2ccc(C(F)(F)F)cc2c1=O` (relative stereo), the melting point was in the range of 137 to 140 °C.
In the case of `CCc1cc2c(Cl)cc(F)c(-n3c(=O)cc(C(F)(F)F)[nH]c3=O)c2o1` it was 154 to 155 °C; in that of `O=C(NC1CCCCC1)OC1CCN(C(=O)Oc2ccc(Oc3ccccc3)cc2)CC1`, 137 to 139 °C.
In turn, `CC(=O)N1CCN(c2ncc3c(=O)c(C(=O)O)c[nH]c3n2)CC1` came in with a melting point of 298 to 300 °C.
Under `CCc1cccc(N2C(c3ccc(Cl)cc3)=NS(=O)(=O)c3cnccc32)c1` stands 227 to 229 °C; under `CNc1nc2ccc(Cl)cc2c2nc(-c3ccco3)nn12`, 166 to 168 °C.
Consider `COc1ccc(Nc2nc(C)c(-c3nc4ccccc4c(=O)n3-c3ccc(Cl)cc3)s2)cc1`, for which the melting point is > 275 °C.
In the case of `CC1(C)Oc2ccc(CN)cc2[C@@H](N2CCCC2=O)[C@@H]1O` (relative stereo) it was 191 to 193 °C.
`COc1ccc2c(Cc3c(Cl)cncc3Cl)nnc(N3CCCC3)c2c1` gave a melting point of 170 to 172 °C.
`CCc1c(C(=O)C(N)=O)c2c(OCC(=O)NOCc3ccccc3)cccc2n1Cc1ccccc1` displayed a melting point of 167 to 169 °C.
In the case of `COc1ccccc1NC(=O)Nc1ccc(N2CCN(C(=O)Nc3ccc(OCCO)cc3Cl)CC2)cc1` it was 134 to 136 °C; in that of `COc1ccc(Oc2ccc(OC(=O)NC(C)CCCC(C)C)cc2)cc1` (centres undefined), 64 to 65 °C.
For `CCCC(c1ccc(NC(C)=O)cc1)n1ccnc1` (centres undefined), the melting point is 186 °C.
`CCOC(=O)C1CC1c1cc(=O)c2cc(-c3ccccc3)ccc2o1` (centres undefined) had a melting point of 134 to 141 °C.
In the case of `CON=C(Cn1c(=O)ccc2ccccc21)c1ccc(N2CCCC2)cc1` it was 169 to 171 °C; in that of `Cc1cc2c(s1)SCCNC2=O`, 155 to 156 °C; in that of `Oc1ccc(-c2cc3cc(Br)ccc3o2)cc1`, 228 to 229 °C.
In the case of `CCCC(c1ccccc1OCc1ccc(Cl)cc1Cl)n1ccnc1` (centres undefined) it was 89 to 90 °C; in that of `Cc1c(C)c2c(c(C)c1O)CCC(C)(O)O2` (centres undefined), 105 to 107 °C.
With `CCCCc1cc2c(=O)n3cc(C(N)=O)ccc3nc2s1`, the melting point lay within 266 to 267 °C.
`CCCCCCNC(=O)[C@@H](NC(=O)OC(C)(C)C)C(C)C` displayed a melting point of 74 to 76 °C.
Turning to `CN1CCC2(CC1)C(=O)N(C)c1ccc(Cl)cc1C(c1ccccc1)N2C` (centres undefined), the melting point was in the range of 80 to 85 °C.
Molecule `Cc1ncnn1-c1ccccc1C#N` had a melting point of 119 to 120 °C.
Under `Cc1cc(C)c(Nc2nc(C)ccc2S(=O)(=O)c2ccc(O)cc2)c(C)c1` stands 226 to 228 °C.
In the case of `COc1ccc2c(n1)CC(=O)N2CCCBr` it was 82 to 83 °C; in that of `Cc1nc2ccc(C#N)cc2[nH]1`, 238 to 240 °C.
In the case of `Cc1nc2c(O)c(CCC(=O)c3ccccc3)c(C(=O)N(C)C)cc2n1COCC[Si](C)(C)C` it was 192 to 194 °C; in that of `O=C1CCC(N2C(=O)c3cccc(NCCOCc4ccccc4)c3C2=O)C(=O)N1` (centres undefined), 158 to 160 °C.
With `CCOP(=O)(CCOCn1cnc2c(OC)ncnc21)OCC`, the melting point fell in the range of 140 to 141 °C.
Consider `CC(C)C(C(=O)O)n1sc2ccccc2c1=O` (centres undefined), for which the melting point is 166 to 168 °C.
In the case of `Cc1ccccc1-c1ncc(NC(=O)OCc2ccccc2)c(=O)n1CC(=O)NC(Cc1ccccc1)C(=O)C(F)(F)F` (centres undefined) it was 127 to 129 °C; in that of `COC(=O)[C@H](O)[C@@H](NC(=O)OC(C)(C)C)c1ccc(F)cc1`, 125 °C.
Under `COc1cc(N)cc(C)c1OCCCN1CCN(c2cccc3sccc23)CC1` stands 155 to 158 °C; under `CC(C)(C)c1ccc(C(=O)Nc2cn3nc(NC4CC4)ccc3n2)cc1`, 274 to 275 °C.
In turn, `CC(=O)Nc1cc(C(=O)CCCCCl)cc2c1OCC2` showed a melting point of 150 to 152 °C.
Under `Cc1ccc(C(=O)Nc2nc(-c3ccccc3)c(-c3nc4ccccc4c(=O)n3-c3ccc(Cl)cc3)s2)cc1` stands > 275 °C.
`Cc1nn(C)c(C)c1C(=O)Nc1cccc2c1C(C)CC2(C)C` (centres undefined) yielded a melting point of 176 °C.
As for `CC(Cc1c[nH]c2ccccc12)(NC(=O)OC1C2CC3CC(C2)CC1C3)C(=O)NC(CN=[N+]=[N-])Cc1ccccc1` (centres undefined), the melting point lay within 77 to 78 °C.
Molecule `CCc1cc([N+](=O)[O-])c(N)c([N+](=O)[O-])c1C` displayed a melting point of 101 to 102 °C.
In the case of `O=C(O)c1ccc(OCC2CCN(CCOc3ccc4c(c3)OCO4)CC2)cc1` it was 133 to 136 °C; in that of `CC1(C)CS(=O)CC(C)(C)c2[nH]c(-c3ccccc3)nc21`, 273 to 275 °C.
`O=c1[nH]c2cccnc2n1CCCO` came in with a melting point of 145 to 148 °C.
In the case of `COC(=O)c1ccc(CN(C(CO)CO)S(=O)(=O)c2ccc(Cl)s2)cc1`, the melting point fell in the range of 134 to 135 °C.
Under `Fc1c(F)c(F)c(CSc2nc3ccccc3[nH]2)c(F)c1F` stands 189 to 196 °C; under `O=C(O)CCC1(c2ccc(Cl)c(Cl)c2)CCC(=O)NC1=O` (single isomer, unassigned; (+)), 201 °C.
In the case of `COC(=O)c1c(N)ncn1C1c2ccsc2CC1(C)C` (centres undefined) it was 161 to 162 °C; in that of `CNc1ccc(-c2nc3c4ccccc4ccc3n2C)cc1`, 225 to 227 °C; in that of `CC(C)Nc1cccnc1N1CCN(C(=O)c2ccc(C(=O)N(C)CCO)cc2)CC1`, 131 to 132 °C.
As for `CC1Cc2c(N)ccc(Cl)c2O1` (centres undefined), the melting point worked out at 70 °C.
In the case of `O=P(Oc1ccc2ccccc2c1)(Oc1ccc2ccccc2c1)Oc1ccc2ccccc2c1` it was 110 to 111 °C.
`COc1ccc(-c2cc(=Nc3c(C)cc(C)cc3C)n(C)c(=O)n2C)cc1N` showed a melting point of 176 to 178 °C.
In the case of `CCOC(=O)C(C)(C)c1ccc2c(c1)N(CC(C)N(C)C)c1ccccc1S2` (centres undefined) it was 107 to 110 °C.
Molecule `O=S(=O)(Nc1cccc(CCOCc2nc(-c3ccc(C(F)(F)F)cc3)sc2Cl)c1)C(F)(F)F` gave a melting point of 107 to 109 °C.
In the case of `CCCCCCc1cc2c(cc1O)C(=O)CCC2` it was 125 °C; in that of `COc1cc2c(c(Cl)c1Cl)C(=O)C(CCOC(C)=O)=C2`, 134 to 136 °C; in that of `ClCc1coc(-c2ccc(Br)o2)n1`, 90 to 92 °C.
On to `CC1(C)Oc2ccsc2C(N2CCCC2=O)C1OC(=O)c1ccccc1` (centres undefined), for which the melting point is 130 to 132 °C.
`CC(C)Cc1nn(C)c(=O)c2cc(C(O)c3cccc4ccccc34)sc12` (centres undefined) came in with a melting point of 165 to 167 °C.
Under `CC(C)Cn1c(CO)nc2cnc3ccccc3c21` stands 165 to 168 °C; under `Cc1cc2c(-c3cccnc3)c(CC(=O)O)c(=O)oc2cc1Cl`, 279 to 281 °C; under `O=C(NCCCBr)c1cnn(-c2nc(-c3cccc(C(F)(F)F)c3)cs2)c1C(F)(F)F`, 187 to 190 °C.
In the case of `CC(=O)Nc1ccc(C=CC(=O)c2ccc(OCC=C(C)C)cc2O)cc1` it was 150 to 152 °C.
